Biological target: T1, WT-CFTR (Homo sapiens, UniProt P13569)
T1 construct: host or cells: CFBE41o-
Experiment: Anti-CFTR immunoblotting (C-band) in CFBE41o- cells expressing WT-CFTR
Format: cell-based
Details: 24 h
Method: Cystic fibrosis bronchial epithelial (CFBE41o^−) cells stably expressing the human WT CFTR or F508del-CFTR mutant [generated in ([26])] were a gift from J. P. Clancy (University of Alabama, Birmingham) and cultured on fibronectin-coated plates (FNC coating mix; Enzo) in minimum essential medium with Earl’s salt (Thermo Fisher Scientific) containing 10% of heat-inactivated fetal bovine serum (FBS; Gibco), penicillin (100 U/ml), streptomycin ([…]) (Thermo Fisher Scientific), and puromycin (2 μg/ml; Sigma-Aldrich). […]
All cells were washed with ice-cold PBS and then lysed for 1 hour on ice with radioimmunoprecipitation assay (RIPA) buffer (Sigma-Aldrich, #R0278) containing 100 mM Na-fluoride, 4 mM Na-orthovanadate, 1 mM phenylmethylsulfonyl fluoride, 1 mM dithiothreitol, and benzonase (100 U/ml; Sigma-Aldrich). […] Samples were mixed with LDS sample buffer (Invitrogen), resolved by SDS-PAGE on 4 to 12% Novex bis-tris precast gels (Thermo Fisher Scientific), and analyzed by Western blotting using a wet transfer method (GenScript) and polyvinylidene difluoride membranes (Life Technologies). […] Membranes were treated with Western Lightning enhanced chemiluminescence substrate (PerkinElmer), and the chemiluminescence signal was recorded and quantified using a chemiluminescence reader and the corresponding software (Fusion FX 7, Evolution Edge, Vilber). […]

T1 sequence (P13569 whole entry): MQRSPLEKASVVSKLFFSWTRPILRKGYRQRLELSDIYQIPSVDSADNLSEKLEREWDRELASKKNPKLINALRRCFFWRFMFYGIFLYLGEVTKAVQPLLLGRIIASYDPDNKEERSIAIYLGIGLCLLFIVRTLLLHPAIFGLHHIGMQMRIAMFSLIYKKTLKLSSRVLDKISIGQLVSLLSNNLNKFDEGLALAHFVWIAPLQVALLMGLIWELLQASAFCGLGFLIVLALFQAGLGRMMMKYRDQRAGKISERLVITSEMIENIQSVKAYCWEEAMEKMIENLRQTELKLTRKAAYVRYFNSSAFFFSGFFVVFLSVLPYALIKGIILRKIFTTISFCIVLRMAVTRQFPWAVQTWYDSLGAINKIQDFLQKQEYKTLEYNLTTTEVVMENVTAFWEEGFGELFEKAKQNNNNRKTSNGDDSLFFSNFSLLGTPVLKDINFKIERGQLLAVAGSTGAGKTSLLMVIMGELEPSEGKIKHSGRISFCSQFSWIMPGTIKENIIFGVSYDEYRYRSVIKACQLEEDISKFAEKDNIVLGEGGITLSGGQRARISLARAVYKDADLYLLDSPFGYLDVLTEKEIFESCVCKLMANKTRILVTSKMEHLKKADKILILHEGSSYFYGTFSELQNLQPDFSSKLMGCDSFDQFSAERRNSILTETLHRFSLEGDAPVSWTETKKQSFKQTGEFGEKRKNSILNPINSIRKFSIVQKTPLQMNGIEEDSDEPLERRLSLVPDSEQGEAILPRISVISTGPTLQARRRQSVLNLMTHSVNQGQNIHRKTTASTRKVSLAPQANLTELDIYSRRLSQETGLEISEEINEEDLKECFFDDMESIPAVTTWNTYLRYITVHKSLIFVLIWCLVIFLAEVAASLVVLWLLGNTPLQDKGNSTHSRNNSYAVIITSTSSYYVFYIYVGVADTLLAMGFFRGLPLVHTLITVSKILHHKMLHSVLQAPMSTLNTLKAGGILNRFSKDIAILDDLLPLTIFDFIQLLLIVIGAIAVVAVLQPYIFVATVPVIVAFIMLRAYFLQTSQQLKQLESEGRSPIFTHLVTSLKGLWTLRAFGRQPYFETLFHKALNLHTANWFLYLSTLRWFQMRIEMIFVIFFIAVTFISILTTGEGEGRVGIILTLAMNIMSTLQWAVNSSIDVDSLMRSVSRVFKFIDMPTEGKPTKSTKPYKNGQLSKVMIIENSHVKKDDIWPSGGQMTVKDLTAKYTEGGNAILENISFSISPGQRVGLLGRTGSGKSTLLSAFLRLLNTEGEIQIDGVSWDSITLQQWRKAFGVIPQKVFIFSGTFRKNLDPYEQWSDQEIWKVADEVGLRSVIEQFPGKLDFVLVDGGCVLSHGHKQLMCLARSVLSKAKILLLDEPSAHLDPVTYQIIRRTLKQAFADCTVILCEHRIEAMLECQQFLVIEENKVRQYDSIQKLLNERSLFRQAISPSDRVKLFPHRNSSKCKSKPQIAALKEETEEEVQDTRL

COc1cc(CCNC(=O)C2CC(=O)N(C)C(CC(C)C)C(=O)N3CCCCC3C(=O)NC(Cc3ccccc3)COc3ccc4ncc(F)cc4c3C(=O)N2)on1 (stereo not shown) [IDOR-3]
increase in WT-CFTR C-band: ~ 2 fold

Reference: paper PMC11801377, “A uniquely efficacious type of CFTR corrector with complementary mode of action” (Science Advances, 2024)
